According to patent US8921426B2, “Cationic bis-urea compounds as effective antimicrobial agents” (International Business Machines Corporation, priority 2012, dated 2014):
Values after ≈ are worked out from the molar mass of the structure shown. “Also recorded” adds a separate entry of the source. Where two headings read alike, the source gives them in different places.

Assays:
[1] = Zeta potential (Zetasizer); type: physicochemical; details: cationic bis-urea compounds, 1000 mg/L; method names PBS pH 7.4 and DI water, table does not say which
Procedure: The zeta potential of the cationic compounds in phosphate-buffered saline (PBS, pH 7.4) and deionized (DI) water was measured by Zetasizer 3000 HAS (Malvern Instrument Ltd., Malvern, UK) equipped with a He—Ne laser beam at […] (scattering angle: 90°). The concentration of cationic compounds was 1000 mg/L. Each measurement was repeated 5 times. An average value was obtained from the five measurements.

[2] = system: Candida albicans (C. albicans) (ATCC No. 10231); test: MIC, broth microdilution, C. albicans; type: cell-based; details: for MIC: Candida albicans, read-out: MIC C. albicans
Procedure: (§1) The minimum inhibitory concentration (MIC) of each of the cationic compounds was measured using a broth microdilution method. The cationic compound were dissolved in DI water at a concentration of 2500 mg/L. The samples were further diluted to 31.25, 62.5, 125, 250.0, 500.0 and 1000.0 mg/L using TSB or YMB. The B. subtilis cells were grown in TSB overnight in an incubator at 37° C. The C. albicans cells were grown in YMB at room temperature. The optical density of the bacterial solution was adjusted to OD600 nm=0.07 to 0.08 by the addition of TSB or YMB. This bacterial solution was further diluted 1000 times. Cationic compound solution (100 microliters) was transferred to each well of 96 well plates (NUNC), followed by the addition of 100 microliters of the bacterial solution. TSB or YMB was used as control. B. subtilis cells were incubated at 37° C. overnight in TSB. C. albicans cells were cultured in YMB at room temperature. C. neoformans were inoculated in MHB broth and grew overnight at 37° C. with shaking at 250 rpm. The optical density readings of bacterial solutions were monitored by measuring OD600nm in predetermined times (0 hours and 18 hours for B. subtilis while 0 hours and 24 hours for C. albicans). The assay was performed in four replicates for each sample and the experiments were repeated at least three times.

rat red blood cells = test: Hemolysis of rat red blood cells; type: cell-based; details: one hour at 37° C.
Procedure: Fresh rat blood cells were washed with PBS three times. 100 microliters of red blood cell suspension in PBS (4% in volume) was introduced to each well of a 96 well-plate and 100 microliters of cationic compound solution was then added to the well. PBS and TRITON X-100 (0.2%) were used as control. The plates were incubated for one hour at 37° C. The 96 well plates were centrifuged at 4000 rpm for 5 minutes. Aliquots (100 microliters) of the supernatant were transferred to a new 96 well plate. Hemoglobin release was measured at 576 nm using a microplate reader (TECAN). The red blood cells in PBS were used as a negative control. Absorbance of wells with red cells lysed with 0.2% TRITON X-100 was taken as 100% hemolysis. Percentage of hemolysis was calculated using the following formula (OD576nm=optical density at 576 nm): Hemolysis (%)=[(OD576nm of the sample−OD576nm of PBS)/(OD576nm of 0.2% TRITON X-100−OD576nm of PBS)×100. The data were expressed as mean and standard deviation of four replicates and the tests were repeated three times.

[3] = system: primary human dermal fibroblasts; test: MTT cytotoxicity assay; type: cell-based; details: 24 hours at 37° C.
Procedure: The cytotoxicity tests of the cationic bis-urea compounds were performed in primary human fibroblasts using MTT assay. The cells were cultured in DMEM supplemented with 10% FBS, 5% penicillin, 2 mM L-glutamine (Sigma) and incubated at 37° C., 5% CO2. The cells were seeded onto 96-well plates at a density of 10,000 cells per well and incubated for one day. Cationic compounds were diluted with the growth medium to give final concentrations of 31.25, 62.5, 125, 250.0, 500.0, 1000.0 and 2500.0 mg/L. The media were replaced with 100 microliters of the pre-prepared samples. The plates were then returned to the incubator and maintained in 5% CO2 at 37° C. for 24 hours. Fresh growth media (100 microliters) containing 10% MTT solution (5 mg/mL) were used to replace the mixture in each well after 24 hours. The plates were then returned to the incubator and maintained in 5% CO2 at 37° C. for a further 4 hours. The growth medium and excess MTT in each well were then removed. DMSO (150 microliters) was then added to each well to dissolve the internalized purple formazan crystals. An aliquot of 100 microliters was taken from each well and transferred to a fresh 96-well plate. Each sample was tested in eight replicates per plate. The plates were then assayed at 550 nm and 690 nm. The absorbance readings of the formazan crystals were taken to be the absorbance at 550 nm minus the absorbance at 690 nm. The results were expressed as a percentage of the absorbance of the blank control.

[4] = system: Cryptococcus neoformans (C. neoformans); test: MIC, broth microdilution, C. neoformans; type: cell-based; details: for MIC: Cryptococcus neoformans, read-out: MIC C. neoformans
Procedure: as §1

[5] = Critical micelle concentration (CMC) by intensity of scattered light; type: physicochemical; details: cationic bis-urea compounds; stock diluted using DI water
Procedure: The intensity of scattered light (in kilo counts per second) was recorded as a function of cationic compounds concentration ranging from 0.0 to 250.0 mg/L. A stock polymer solution was prepared with a concentration of 1000.0 mg/L, and diluted using DI water to various concentrations. The intensity of scattered light was plotted against polymer concentration. The CMC value was taken from the intersection of the tangent to the curve at the inflection with the horizontal tangent through the points at low concentrations.

[6] = system: Bacillus subtilis (B. subtilis) (ATCC No. 23857); test: MIC, broth microdilution, B. subtilis; type: cell-based; details: ATCC23857, TSB, 37° C., 18 hours
Procedure: as §1

C. albicans = test: Killing efficiency, spread plate method, C. albicans; type: cell-based, Candida albicans; details: for killing of C. albicans cells: 24 hour treatment
Procedure: (§2) Antimicrobial activities of cationic compounds were also tested through a spread plate method. B. subtilis and C. albicans were treated at half MIC, MIC and 2×MIC concentrations of cationic compounds. At predetermined time (18 hours for B. subtilis and 24 hours for C. albicans and C. neoformans), microbial suspensions were withdrawn, diluted sequentially, and then plated on 1.5% lysogeny broth (LB) agar plates. The plates were incubated for 24 hours at 37° C. (48 hours at room temperature for C. albicans). Microbial colonies were formed and counted. The results are expressed as % kill=(cell count of control−survivor count of samples)/cell count of control×100. The experiments were performed in triplicate and were repeated three times.

B. subtilis = test: Killing efficiency, spread plate method, B. subtilis; type: cell-based, Bacillus subtilis; details: 18 hour treatment
Procedure: as §2

C. neoformans cells = test: TEM of C. neoformans cells before and after treatment; type: cell-based, Cryptococcus neoformans; details: 8 hours, FIG. 7B
Procedure: The morphology of the C. neoformans before and after treatment with cationic compound CBU2 was observed under a JEM-1230 TEM (JEOL, Japan) using an acceleration voltage of 80 keV. The C. neoformans (1.5 mL) was incubated with 0.5 mL of CBU2 solution for 8 hours. The solution was then centrifuged at 4000 rpm for 10 minutes, and the supernatant removed. The […] was washed with PBS twice and then fixed in formalin solution containing 2.5% glutaraldehyde overnight. The sample was then washed by PBS three times (15 minutes each) and then post fixed with 1% OsO4 in phosphate buffer (pH 7.0) for one hour. The fixed samples were washed in phosphate buffer three times (15 minutes each), followed by dehydration in a graded ethanol series. The samples were incubated with the mixtures of acetone and Spun resin (1:1 in volume) for one hour at room temperature, and then transferred to 1:3 mixture of acetone and Spun resin for 3 hours, and to Spun resin overnight. Ultrathin sections (70-90 nm) were cut using a Reichert-Jung Ultracut E ultramicrotome, and post-stained with uranyl acetate and lead citrate for 15 minutes each prior to TEM observations. Spun resin can be prepared from a kit by combining 3,4 epoxy cyclohexyl methyl 3,4 epoxy cyclohexyl carboxylate (ERL-4221 resin from Polysciences) (10.0 g), nonenylsuccinic anhydride (26.0 g), and dimethylaminoethanol (0.4 g).

[7] = up to a concentration of 1000 mg/L
[8] = ATCC10231, YMB, room temperature, 24 hours
[9] = 24 hours, 1.0 and 2.0 times the MIC (FIG. 4A)

MIC [2, 8] [µg/mL]	MIC [6] [µg/mL]	MIC ([4]; MHB broth, 37° C.) [µg/mL]	Structure (SMILES)	Zeta Potential [1] [mV]	activity against C. albicans (in words) [2]	MIC ([2]; ATCC10231, 24 h) [µg/mL]	HC50 (concentration that induces 50% hemolysis of rat red blood cells) (rat red blood cells)	cell viability of primary human fibroblasts [3, 7]	activity against C. neoformans (in words) [4]	MIC [4] [µg/mL]	CMC [5] [mg/L]	killing efficiency against C. albicans (C. albicans; [9]) [%]	killing of C. albicans cells (C. albicans; about 125 mg/L) [%]	cell viability of primary human fibroblasts ([3]; up to a concentration of 250 mg/L)	killing of B. subtilis cells (B. subtilis; about 500 mg/L) [%]	killing of C. albicans cells (C. albicans; about 500 mg/L) [%]	killing of B. subtilis cells (B. subtilis; about 125 mg/L) [%]	cell membrane morphology after treatment (TEM) (C. neoformans cells)	killing efficiency against C. albicans (C. albicans; 31.2 mg/L, by 1 hour of incubation (FIG. 5)) [%]	killing of C. albicans cells (C. albicans; about 31.2 mg/L) [%]
–	–	–	NCCCCCCNC(=O)Nc1ccc(CNC(=O)c2ccc(C(=O)NCc3ccc(NC(=O)NCCCCCCN)cc3)cc2)cc1 [CBU6]	35.3	highly active; also recorded: more active	31.2 (≈ 47.4 µM)	>>1000 mg/L	About 80%	highly active	62.5 (≈ 94.9 µM)	15.0	–	–	–	–	–	–	–	–	–
–	–	–	NCc1ccc(CNC(=O)Nc2ccc(CNC(=O)c3ccc(C(=O)NCc4ccc(NC(=O)NCc5ccc(CN)cc5)cc4)cc3)cc2)cc1 [CBU7]	45.1	highly active; also recorded: more active	31.2 (≈ 44.6 µM)	>>1000 mg/L	–	highly active	31.2 (≈ 44.6 µM)	12.0	–	–	–	–	–	–	–	–	–
250	125	–	C[N+](C)(C)CCCNC(=O)Nc1ccc(NC(=O)c2ccc(C(=O)Nc3ccc(NC(=O)NCCC[N+](C)(C)C)cc3)cc2)cc1.[I-].[I-] [CBU3]	32.8	–	–	>>2500 mg/L	More than 80%	–	–	110.0	100	99.9	–	–	–	–	–	–	–
500	500	–	C[N+](C)(C)CCCNC(=O)Nc1ccc(CNC(=O)c2ccc(C(=O)NCc3ccc(NC(=O)NCCC[N+](C)(C)C)cc3)cc2)cc1.[I-].[I-] [CBU1]	47.0	–	–	>>2500 mg/L	–	–	–	170.0	–	–	About 60%	100	99	–	–	–	–
–	–	–	NCCNC(=O)Nc1ccc(CNC(=O)c2ccc(C(=O)NCc3ccc(NC(=O)NCCN)cc3)cc2)cc1 [CBU5]	32.2	highly active; also recorded: more active	62.5 (≈ 114 µM)	>>1000 mg/L	About 80%	highly active	125 (≈ 229 µM)	100.00	–	–	–	–	–	–	–	–	–
31.2 (≈ 51.8 µM)	125 (≈ 207 µM)	62.5 (≈ 104 µM)	NCCCCNC(=O)Nc1ccc(CNC(=O)c2ccc(C(=O)NCc3ccc(NC(=O)NCCCCN)cc3)cc2)cc1 [CBU2]	36.7	highly active; also recorded: more active	–	>>1000 mg/L	–	highly active	–	20.0	100	–	–	–	–	100	ruptured and show loss of intracellular material	100	100
